Molecules are shown by their SMILES. Where “and” joins values, the source holds several entries; their conditions need not be identical. Equal entries are not always repeated.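 1) Cells in 96-well plates. 2) Compound, 48 h, 5 concentrations. 3) Linear interpolation between surrounding doses. 4) Unreached endpoint = highest concentration. GI50 is the concentration that inhibits growth by half. At the TGI there is no net growth.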

Test systems include LXFL 529 NSCLC; SK-MEL-28 melanoma; M19-MEL melanoma; OVCAR-3 ovarian; SK-MEL-5 melanoma; SF-268 CNS; NCI-H226 lung; RXF 393 renal; T-47D breast; NCI/ADR-RES ovarian.
Common to all, as to assay: growth of human tumour cells (NCI), 48 h

On to `Nc1c(C(=O)Nc2ccccc2)[n+]([O-])c2ccccc2[n+]1[O-]`, for which the TGI was 28.1 µM in the assay on LXFL 529 NSCLC; 34.9 µM in the assay with SK-MEL-28 melanoma; 32.2 µM with M19-MEL melanoma; 31.7 µM with OVCAR-3 ovarian; 29.1 µM in the assay with SK-MEL-5 melanoma; above 100 µM with SF-268 CNS. In addition, in the assay with NCI-H226 lung, the TGI was 76.3 µM.
Regarding `O=C(C(=O)N1CC2C=CC1CC2)c1c[nH]c2ccccc12` (stereo not given), the TGI with LXFL 529 NSCLC, in the assay with M19-MEL melanoma, in the assay on RXF 393 renal, in the assay on SK-MEL-5 melanoma, with SF-268 CNS and in the assay on NCI-H226 lung was above 100 µM in each case.
As to `CC1=CCC23C(C1)OC(Br)(C=CC2(C)O)C3(C)C` (stereo not given), the TGI in the assay on SK-MEL-28 melanoma, in the assay with M19-MEL melanoma, in the assay on SK-MEL-5 melanoma, in the assay with SF-268 CNS and in the assay on NCI-H226 lung was above 100 µM each time.
As to `C=C1C(=O)O[C@H]2[C@H]1CC/C(COC(=O)CSCC(=O)OC/C1=C/CC[C@@]3(C)O[C@H]3[C@H]3OC(=O)C(=C)[C@@H]3CC1)=C\CC[C@@]1(C)O[C@@H]21`, the GI50 with SK-MEL-28 melanoma was 1.55 µM; in the assay with T-47D breast it was 2160 nM; in the assay on OVCAR-3 ovarian, 0.832 µM; in the assay with RXF 393 renal, 0.416 µM; with NCI/ADR-RES ovarian, 12 µM; in the assay on SK-MEL-5 melanoma, 1.73 µM. Also, the GI50 in the assay on SF-268 CNS is 3.28 µM; with NCI-H226 lung, 2.28 µM. Besides, the TGI worked out at 3.61 µM in the assay on SK-MEL-28 melanoma; 5.72 µM in the assay with T-47D breast; 2.12 µM in the assay with OVCAR-3 ovarian; 1.52 µM with RXF 393 renal; 40.2 µM in the assay with NCI/ADR-RES ovarian; 3.77 µM with SK-MEL-5 melanoma. Moreover, the TGI in the assay on SF-268 CNS was determined as 13.9 µM; in the assay on NCI-H226 lung, 6.59 µM.
On to `O=C(N/N=C/c1ccccc1O)C(=O)Nc1ccc(F)cc1`, for which the GI50 with SK-MEL-28 melanoma was 8.04 µM; in the assay with T-47D breast, 6630 nM; in the assay with OVCAR-3 ovarian it was 3.18 µM; with RXF 393 renal, 9.93 µM; with NCI/ADR-RES ovarian, 3 µM; in the assay on SK-MEL-5 melanoma, 5.62 µM. The GI50 with SF-268 CNS is 2.77 µM; with NCI-H226 lung, 16 µM. The TGI in the assay with SK-MEL-28 melanoma, in the assay with T-47D breast, in the assay with OVCAR-3 ovarian, in the assay on RXF 393 renal, in the assay with NCI/ADR-RES ovarian and in the assay with SK-MEL-5 melanoma was above 100 µM in each case. Besides, the TGI in the assay with SF-268 CNS and in the assay on NCI-H226 lung was above 100 µM each time.
For the molecule `c1cn2cc(-c3ccc4cn[nH]c4c3)nc(Nc3ccc(N4CCOCC4)cc3)c2n1`, the GI50 in the assay with SK-MEL-28 melanoma is 13 µM; in the assay with T-47D breast, 12000 nM; in the assay with OVCAR-3 ovarian it was 18.4 µM; in the assay on RXF 393 renal it was 2.47 µM; in the assay with NCI/ADR-RES ovarian, 11.1 µM; in the assay on SK-MEL-5 melanoma it was 15.5 µM. In addition, the GI50 in the assay with SF-268 CNS is 5.11 µM; in the assay on NCI-H226 lung it was 4.82 µM. The TGI worked out at 40.5 µM in the assay with SK-MEL-28 melanoma; 30.9 µM in the assay with T-47D breast; 40.2 µM in the assay with OVCAR-3 ovarian; 18.3 µM with RXF 393 renal; 32.4 µM in the assay on NCI/ADR-RES ovarian; 40.1 µM in the assay on SK-MEL-5 melanoma. Moreover, the values for the TGI in the assay on SF-268 CNS and in the assay with NCI-H226 lung were 27.4 µM and 24.6 µM, respectively.
In the case of `O=Nc1ccc2ccccc2c1O`, the GI50 is 9.08 µM in the assay with SK-MEL-28 melanoma; 2750 nM with T-47D breast; 1.9 µM with OVCAR-3 ovarian; 14 µM in the assay with RXF 393 renal; 2.62 µM with NCI/ADR-RES ovarian; 2.71 µM in the assay on SK-MEL-5 melanoma. For the same molecule, the GI50 in the assay on SF-268 CNS was 3.97 µM; in the assay with NCI-H226 lung, 12.4 µM. Moreover, the TGI is 22.2 µM with SK-MEL-28 melanoma; 6.08 µM in the assay with T-47D breast; 5.01 µM with OVCAR-3 ovarian; 27.3 µM in the assay with RXF 393 renal; 8.22 µM in the assay on NCI/ADR-RES ovarian; 8.41 µM in the assay with SK-MEL-5 melanoma. The TGI with SF-268 CNS was determined as 13.3 µM; in the assay on NCI-H226 lung, 29.1 µM.
As for `Cc1c2c[n+](C(C)C)ccc2c(C)c2c1[nH]c1ccccc12`, the GI50 in the assay on SK-MEL-28 melanoma is 2.25 µM; in the assay on T-47D breast, 1480 nM; in the assay with OVCAR-3 ovarian, 2.61 µM; in the assay with RXF 393 renal, 6.19 µM; in the assay with NCI/ADR-RES ovarian, 56.5 µM; in the assay on SK-MEL-5 melanoma it was 1.5 µM. The GI50 is 0.475 µM with SF-268 CNS and 4.32 µM in the assay with NCI-H226 lung. Also, the TGI with SK-MEL-28 melanoma is 12.9 µM; with T-47D breast it was 6.64 µM; in the assay with OVCAR-3 ovarian, 12.2 µM; with RXF 393 renal, above 100 µM; in the assay on NCI/ADR-RES ovarian, above 100 µM; in the assay with SK-MEL-5 melanoma, 3.89 µM. Besides, the results for the TGI with SF-268 CNS and with NCI-H226 lung were 14.9 µM and 41.5 µM, respectively.
Consider `C=CCC1(O)c2cccc(NCCO)c2C(=O)c2c(NCCO)cccc21`, for which the GI50 in the assay on SK-MEL-28 melanoma was above 100 µM; in the assay on T-47D breast, above 100000 nM; with OVCAR-3 ovarian, above 100 µM; in the assay with RXF 393 renal it was above 100 µM; with NCI/ADR-RES ovarian, above 100 µM; in the assay on SK-MEL-5 melanoma, above 100 µM. In addition, the GI50 in the assay on SF-268 CNS and with NCI-H226 lung was above 100 µM in each case. For the same molecule, the TGI in the assay with SK-MEL-28 melanoma, in the assay on T-47D breast, in the assay with OVCAR-3 ovarian, in the assay on RXF 393 renal, in the assay with NCI/ADR-RES ovarian and in the assay on SK-MEL-5 melanoma was above 100 µM in each case. Moreover, the TGI with SF-268 CNS and in the assay with NCI-H226 lung was above 100 µM throughout.
For `Cc1cc(Nc2ncnc3ccc(NC4=NC(C)(C)CO4)cc23)ccc1Oc1ccn2ncnc2c1`, the GI50 with SK-MEL-28 melanoma is 13.2 µM and > 10 µM; with T-47D breast it was 1330 nM and 1750 nM; in the assay on OVCAR-3 ovarian, 14.4 µM and > 10 µM; in the assay with RXF 393 renal, 12.7 µM and > 10 µM; in the assay with NCI/ADR-RES ovarian, 17.1 µM and > 10 µM; in the assay on SK-MEL-5 melanoma it was 9.59 µM and 9.83 µM. Further, the GI50 with SF-268 CNS is 18.9 µM and > 10 µM; with NCI-H226 lung, 16.6 µM and > 10 µM. Moreover, the TGI in the assay with SK-MEL-28 melanoma was 29.3 µM and > 10 µM; in the assay on T-47D breast, 12.8 µM and > 10 µM; in the assay with OVCAR-3 ovarian it was 52.6 µM and > 10 µM; in the assay with RXF 393 renal, 28.9 µM and > 10 µM; with NCI/ADR-RES ovarian, 89.2 µM and > 10 µM; with SK-MEL-5 melanoma, 22.3 µM and > 10 µM. Further, the TGI with SF-268 CNS was above 91.9 µM; in the assay on NCI-H226 lung it was above 90.2 µM.

Values taken from PubChem BioAssay (NCI).
